A short description of the first data set: Log P by HPLC on reversed phase columns (EEC directive 79/831 Annex V.A8). The settings on record: LogP method [a]; compounds of formula (I), Table 1.1. The format is physicochemical. On the procedure: In the above tables, measurement of Log P values was performed according to EEC directive 79/831 Annex V.A8 by HPLC (High Performance Liquid Chromatography) on reversed phase columns with the following methods: • ^[a] Log P value is determined by measurement of LC-UV, in an acidic range, with 0.1% formic acid in water and acetonitrile as eluent (linear gradient from 10% acetonitrile to 95% acetonitrile). • ^[b] Log P value is determined by measurement of LC-UV, in a neutral range, with 0.001 molar ammonium acetate solution in water and acetonitrile as eluent (linear gradient from 10% acetonitrile to 95% acetonitrile). • ^[c] Log P value is determined by measurement of LC-UV, in an acidic range, with 0.1% phosphoric acid and acetonitrile as eluent (linear gradient from 10% acetonitrile to 95% acetonitrile). If more than one Log P value is available within the same method, all the values are given and separated by “+”. Calibration was done with straight-chain alkan2-ones (with 3 to 16 carbon atoms) with known Log P values (measurement of Log P values using retention times with linear interpolation between successive alkanones). Lambda-max-values were determined using UV-spectra from 200 nm to 400 nm and the peak values of the chromatographic signals.
For `COC(=O)C(NC(=O)c1sc(Cl)c(Cl)c1C(F)F)C1CC1` (centres unmarked) [1.0417], the LogP is 3.33^[a].

For the molecule `NC(=O)C1(NC(=O)C2(NC(=O)c3cc(I)c(I)s3)CC2)CC1` [1.0470], the LogP was 1.88^[a].

For `CCOC(=O)C(Cc1ccccc1)NC(=O)c1sc(Br)c(C(F)F)c1Br` (centres unmarked) [1.0504], the LogP is 4.40^[a].

Consider `COC(=O)C(CC(F)F)NC(=O)c1sc(Br)c(Cl)c1F` (centres unmarked) [1.0430], for which the LogP is 3.21^[a].

Consider `O=C(NC1(C(=O)O)CC1)c1cc(Cl)c(Br)s1` [1.0455], for which the LogP was 1.99^[a].

Turning to `CCOC(=O)C1(NC(=O)c2cc(F)c(Br)s2)CCC1` [1.0459], the LogP is 2.98^[a].

For `COC(=O)CNC(=O)c1sc(C(F)F)c(Br)c1Br` [1.0511], the LogP is 2.64^[a].

On to `CCOC(=O)CCNC(=O)c1sc(C)c(Br)c1F` [1.0481], for which the LogP was 2.78^[a].

On to `CCOC(=O)C(C)NC(=O)c1sc(Br)c(Cl)c1F` (centres unmarked) [1.0425], for which the LogP is 3.38^[a].

Take `CCOC(=O)CNC(=S)c1sc(Cl)c(Br)c1Cl` [1.0484]: the LogP was 4.59^[a].

As to `CCOC(=O)CCNC(=O)c1cc(Br)c(Cl)s1` [1.0453], the LogP was 2.80^[a].

Consider `COC(=O)CNC(=O)c1sc(Br)c(Br)c1F` [1.0527], for which the LogP is 2.52^[a].

The data set is the same for the next values; noted with them: method [a].
For `COC(=O)CNC(=O)c1sc(I)c(Cl)c1Cl` [1.0826], the LogP was 2.82^[a].

On to `CCOC(=O)[C@@H](NC(=O)c1sc(Br)c(Br)c1F)C(C)C` [1.0151], for which the LogP was 4.47^[a].

With `COC(=O)CC[C@H](NC(=O)c1sc(Br)c(Br)c1F)C(=O)OC` [1.0557], the LogP is 3.07^[a].

`CCOC(=O)C(CSC(C)=O)NC(=O)c1sc(Br)c(Br)c1F` (centres unmarked) [1.0554]: the LogP is 3.18^[a].

Consider `CCOC(=O)C(COC)NC(=O)c1sc(Br)c(Br)c1F` (centres unmarked) [1.0135], for which the LogP was 3.46^[a].

Take `N#CCNC(=O)c1sc(Cl)c(Br)c1Cl` [1.0176]: the LogP is 2.70^[a].

Consider `CCOC(=O)C(NC(=S)c1sc(Br)c(Br)c1F)C1CC1` (centres unmarked) [1.0865], for which the LogP was 4.99^[a].

As for `CCOC(=O)CNC(=O)c1sc(C#N)c(Br)c1Cl` [1.0604], the LogP is 2.63^[a].

On to `CCOC(=O)C(NC(=O)c1sc(Cl)c(Br)c1C)C1CC1` (centres unmarked) [1.0266], for which the LogP was 3.81^[a].

On to `CCOC(=O)C(CCSC)NC(=O)c1sc(Br)c(Cl)c1Cl` (centres unmarked) [1.0203], for which the LogP was 4.44^[a].

Take `CCOC(=O)CNC(=O)c1sc(Cl)c(C)c1Cl` [1.0893]: the LogP is 3.07^[a].

As to `COC(=O)C(C)(C)NC(=O)c1sc(C#N)c(Br)c1Cl` [1.0589], the LogP was 2.93^[a].

In the case of `O=C(NC(C(=O)OCc1ccccc1)C1CC1)c1sc(Br)c(Br)c1F` (centres unmarked) [1.0619], the LogP is 4.63^[a].

Consider `CCOC(=O)CC[C@H](NC(=O)c1sc(Cl)c(Cl)c1Br)C(=O)OCC` [1.0562], for which the LogP is 4.25^[a].

Consider `CCOC(=O)C(Cc1ccccc1)NC(=O)c1sc(Cl)c(Br)c1F` (centres unmarked) [1.0640], for which the LogP was 4.50^[a].

`COC(=O)CNC(=S)c1sc(Br)c(Br)c1F` [1.0538]: the LogP was 3.74^[a].

For the molecule `COC(=O)C1(NC(=O)c2sc(Br)c(Br)c2F)COC1` [1.0541], the LogP was 2.49^[a].

On to `N#CC1(NC(=O)c2sc(Br)c(Br)c2Cl)CCC1` [1.0873], for which the LogP is 3.35^[a].

For the molecule `CCOC(=O)C(CSC)NC(=O)c1sc(Br)c(Br)c1F` (centres unmarked) [1.0556], the LogP was 3.87^[a].

Regarding `CCOC(=O)C1(NC(=O)c2sc(Cl)c(Br)c2C#N)CC1` [1.0585], the LogP is 2.70^[a].

For the molecule `O=C(NC(Cc1c[nH]c2ccccc12)C(=O)O)c1sc(Br)c(Br)c1F` (centres unmarked) [1.0231], the LogP was 3.05^[a].

Consider `N#CCNC(=O)c1sc(C#N)c(Br)c1Cl` [1.0569], for which the LogP is 2.08^[a].

On to `Cc1c(C(=O)NC2(C(=O)OC3CCC3)CC2)sc(Br)c1Cl` [1.0651], for which the LogP was 3.78^[a].

As to `CCOC(=O)C(CCSC)NC(=O)c1cc(Cl)c(Br)s1` (centres unmarked) [1.0237], the LogP is 3.59^[a].

In the case of `CCSC(=O)C1(NC(=O)c2sc(Br)c(Br)c2I)CC1` [1.0139], the LogP is 3.96^[a].

The data set is the same for the next values; noted with them: method [a]: LC-UV, acidic range, 0.1% formic acid in water and acetonitrile.
As for `CCOC(=O)c1sc(I)c(Cl)c1Cl` [II.056], the LogP was 4.57^[a].

For `O=C(O)c1cc(Cl)c(F)s1` [II.064], the LogP is 2.16^[a].

Consider `COC(=O)[C@H](Cc1ccccc1)NC(=O)[C@H](CC(=O)O)NC(=O)c1sc(Br)c(Br)c1F` [I.0338], for which the LogP was 2.98^[a].

`O=C(O)c1sc(I)c(Cl)c1Cl` [II.057]: the LogP is 3.01^[a].

Turning to `O=C(O)c1sc(Cl)c(Cl)c1C(F)F` [II.003], the LogP is 2.39^[a].

Turning to `Cc1c(C(=O)O)sc(F)c1Br` [II.102], the LogP is 2.53^[a].

For the molecule `COC(=O)c1sc(F)c(Br)c1Br` [II.086], the LogP is 3.56^[a].

On to `COC(=O)c1sc(C#N)c(Br)c1Cl` [II.080], for which the LogP was 3.02^[a].

Consider `O=C(O)c1sc(Cl)c(Br)c1F` [II.005], for which the LogP is 2.14^[a].

Still in this data set, the particulars now being: method [a]; compounds of formula (I), Table 1.1.
On to `Cc1c(C(=O)NC(C#N)Cc2ccccc2)sc(Cl)c1Br` (centres unmarked) [1.0110], for which the LogP is 3.99^[a].

As for `CCOC(=O)C(CC(F)(F)F)NC(=O)c1sc(Br)c(Cl)c1C` (centres unmarked) [1.0045], the LogP was 3.94^[a].

Take `CCOC(=O)C(Cc1ccccc1)NC(=O)c1sc(Br)c(Br)c1F` (centres unmarked) [1.0051]: the LogP was 4.55^[a].

In the case of `CCOC(=O)C(Cc1ccccc1)NC(=O)c1sc(Br)c(Cl)c1C` (centres unmarked) [1.0080], the LogP was 4.46^[a].

Take `Cc1c(C(=O)NC(C#N)C(C)C)sc(Cl)c1Br` (centres unmarked) [1.0108]: the LogP is 3.63^[a].

In the case of `CCOC(=O)C(CO)NC(=O)c1sc(Br)c(Br)c1F` (racemic) [1.0012], the LogP was 2.51^[a].

On to `CCOC(=O)C(Cc1ccccc1)NC(=O)c1sc(I)c(Br)c1C` (centres unmarked) [1.0104], for which the LogP was 4.46^[a].

For `CCOC(=O)C(Cc1ccccc1)NC(=O)c1sc(Cl)c(Br)c1C` (centres unmarked) [1.0071], the LogP was 4.51^[a].

In the case of `CCOC(=O)CNC(=O)c1sc(Br)c(Cl)c1C` [1.0072], the LogP was 2.94^[a].

Regarding `O=C(CNC(=O)c1sc(Br)c(Br)c1F)SCc1ccccc1` [1.0015], the LogP is 4.15^[a].

The same data set, now with this note: method marked [a].
For the molecule `O=C(NC(CC(F)F)C(=O)O)c1sc(Cl)c(Cl)c1Br` (centres unmarked) [1.0337], the LogP is 2.81^[a].

On to `CCOC(=O)C1(NC(=O)c2sc(C#N)c(Cl)c2Br)CCC1` [1.0683], for which the LogP is 3.34^[a].

For the molecule `COC(=O)C(NC(=O)c1sc(Cl)c(C#N)c1Br)C1CC1` (centres unmarked) [1.0659], the LogP is 3.00^[a].

Regarding `COC(=O)CNC(=O)c1sc(F)c(Br)c1C` [1.0316], the LogP was 2.31^[a].

Turning to `CCOC(=O)C(C)(C)NC(=O)c1sc(Cl)c(Cl)c1C(F)F` [1.0746], the LogP is 3.55^[a].

With `O=C(NC(C(=O)O)C1CC1)c1sc(Br)c(Br)c1F` (centres unmarked) [1.0294], the LogP is 2.64^[a].

Consider `COC(=O)C1(NC(=S)c2sc(Cl)c(Br)c2C)CC1` [1.0332], for which the LogP is 3.71^[a].

Turning to `N#Cc1sc(C(=O)NC2(C(=O)O)CC2)cc1Br` [1.0282], the LogP is 1.70^[a].

Take `O=C(NC(C(=O)O)C1CC1)c1cc(Br)c(Cl)s1` (centres unmarked) [1.0285]: the LogP was 2.44^[a].

With `CCOC(=O)C1(NC(=O)c2sc(Br)c(Br)c2Cl)CSC1` [1.0728], the LogP was 3.97^[a].

Consider `CCOC(=O)C(CCSC)NC(=O)c1sc(F)c(Cl)c1C` (centres unmarked) [1.0300], for which the LogP was 3.64^[a].

With `CCOC(=O)C(NC(=O)c1sc(Br)c(Br)c1Cl)C(=O)OCC` [1.0783], the LogP is 4.33^[a].

Staying with this data set, now noted: method marker [a] given with each value; Table 1.1, compounds of formula (I).
Turning to `CC(C)C(C#N)NC(=O)c1sc(Cl)c(Cl)c1Br` (centres unmarked) [1.1013], the LogP was 3.84^[a].

Consider `CCOC(=O)C(C)(C)NC(=O)c1sc(Cl)c(Cl)c1Br` [1.1062], for which the LogP is 4.24^[a].

On to `CN(C)C(=S)CNC(=O)c1sc(Br)c(Br)c1F` [1.1002], for which the LogP is 3.19^[a].

For the molecule `C=CCOC(=O)CNC(=O)c1sc(Br)c(Br)c1Cl` [1.0961], the LogP was 3.50^[a].

As for `CC(C)C(C#N)NC(=O)c1sc(Br)c(Br)c1F` (centres unmarked) [1.1010], the LogP was 3.54^[a].

For `C#CCOC(=O)CNC(=O)c1sc(C#N)c(Br)c1C` [1.0992], the LogP is 2.43^[a].

As for `COC(=O)C(NC(=O)c1sc(Br)c(Br)c1C(F)F)C(=O)OC` [1.1067], the LogP is 3.05^[a].

For the molecule `CCOC(=O)C(NC(=O)c1sc(C#N)c(Br)c1C)C1CC1` (centres unmarked) [1.0974], the LogP was 3.15^[a].

As for `O=C(CNC(=O)c1sc(Br)c(Br)c1F)OCC(F)(F)F` [1.1026], the LogP was 3.40^[a].

On to `CNC(=S)C1(NC(=O)c2sc(Br)c(Br)c2F)CC1` [1.0976], for which the LogP was 2.82^[a].

The data set is the same for the next values; noted with them: reversed phase HPLC columns, value in preparation example, method not marked.
Consider `O=C(NC1(C(=O)O)CCC1)c1sc(Br)c(Br)c1F` [I.0172, 1-{[(4,5-dibromo-3-fluoro-2-thienyl)carbonyl]amino}cyclobutanecarboxylic acid], for which the chromatographic logP (as a rule, lipophilicity estimated from chromatographic retention) was determined as 2.57.

`NC(=O)CNC(=O)c1sc(Br)c(Br)c1F` [I.0894, N-(2-amino-2-oxoethyl)-4,5-dibromo-3-fluorothiophene-2-carboxamide]: the chromatographic logP was 1.69.
